Test results from patent US5643887A, “Daunomycin derivative with reduced cytotoxicity toward normal cells” (The Scripps Research Institute, priority 1995, dated 1997).

Legend:
[1] = tested on: HL-60 (promyelocytic leukemia); experiment: Sulforhodamine B cytotoxicity assay, HL-60; format: cell-based; details: Homo sapiens, transformed, 72 hours
Procedure: (§1) 1. Preparation of target cells in 96-well plates
(§2) 2. Preparation of sample drugs and toxic control a. Stock drug solutions were prepared by dissolving drug in the appropriate solvent (determined during chemical characterization studies) and sterile filtering the drug-solvent solution through a sterile 0.2 μ filter unit. An aliquot was taken from each filtered drug solution and the O.D. was measured to determine the drug concentration. […]
(§3) b. Dilute the stock drug solution prepared above with T.C. medium to the desired initial concentration (10^-2 -10^-4 M). A minimum volume of 220 μL of diluted drug is required per 96-well plate used in the assay.
(§4) 3. Addition of Sample Compounds and Controls to 96-well Plates b. Add 100 μL of the initial .compound dilution to adjacent duplicate wells in Columns #2. (Four materials can be tested in duplicate per 96-well plate.) c. Remove 10 μL of diluted compound from the wells in Column #2 and transfer to the corresponding wells in Column #3. Mix by pipetting up and down gently approximately five times. d. Transfer 10 μL to the appropriate wells in Column #4 and continue to make […] dilutions of compound across the plate through Column #12. f. Incubate (37° C., 5-10 percent CO2 in humidified incubator) plates for a total of 72 hours. […]
(§5) IC50 values; i.e., the concentration of Compound required to kill one-half of the treated cells, were then calculated. […]

[2] = tested on: HT-29 (colon carcinoma); experiment: Sulforhodamine B cytotoxicity assay, HT-29; format: cell-based; details: Homo sapiens, transformed, 72 hours
Procedure: as §1, §2, §3, §4, §5

[3] = tested on: MCF-7 (breast carcinoma); experiment: Sulforhodamine B cytotoxicity assay, MCF-7; format: cell-based; details: Homo sapiens, MCF7, transformed, 72 hours
Procedure: as §1, §2, §3, §4, §5

[4] = tested on: MOLT-4 (T cell leukemia); experiment: Sulforhodamine B cytotoxicity assay, MOLT-4; format: cell-based; details: Homo sapiens, transformed, 72 hours
Procedure: as §1, §2, §3, §4, §5

[5] = tested on: SK-Mel-28 (melanoma); experiment: Sulforhodamine B cytotoxicity assay, SK-Mel-28; format: cell-based; details: Homo sapiens, transformed, 72 hours
Procedure: as §1, §2, §3, §4, §5

[6] = tested on: Copan-1 (pancreatic carcinoma); experiment: Sulforhodamine B cytotoxicity assay, Copan-1; format: cell-based; details: transformed, 72 hours
Procedure: as §1, §2, §3, §4, §5

[7] = tested on: P-388 (mouse leukemia); experiment: Sulforhodamine B cytotoxicity assay, P-388; format: cell-based; details: P388, transformed, 72 hours
Procedure: as §1, §2, §3, §4, §5

[8] = tested on: Ovcar-3 (ovarian carcinoma); experiment: Sulforhodamine B cytotoxicity assay, Ovcar-3; format: cell-based; details: Homo sapiens, transformed, 72 hours
Procedure: as §1, §2, §3, §4, §5

[9] = tested on: UCLA-P3 (lung carcinoma); experiment: Sulforhodamine B cytotoxicity assay, UCLA-P3; format: cell-based; details: Homo sapiens, UCLA P-3, transformed, 72 hours
Procedure: as §1, §2, §3, §4
(§6) IC50 values; i.e., the concentration of Compound required to kill one-half of the treated cells, were then calculated.

[10] = tested on: HMEC (human mammary epithelial cells); experiment: Sulforhodamine B cytotoxicity assay, HMEC; format: cell-based; details: non-transformed, 72 hours
Procedure: as §1, §2, §3, §4, §6

[11] = tested on: NHDF (normal human dermal fibroblasts); experiment: Sulforhodamine B cytotoxicity assay, NHDF; format: cell-based; details: non-transformed, 72 hours
Procedure: as §1, §2, §3, §4, §6

[12] = tested on: CHO cells; experiment: Sulforhodamine B cytotoxicity assay, CHO; format: cell-based; details: Cricetulus griseus, non-transformed, 72 hours
Procedure: as §1, §2, §3, §4, §5

[13] = tested on: PBL (human peripheral blood lymphocytes); experiment: Sulforhodamine B cytotoxicity assay, PBL; format: cell-based; details: Lymphocyte, non-transformed, 72 hours
Procedure: as §1, §2, §3, §4, §6

[14] = tested on: transformed, cancerous cell lines; experiment: Cytotoxicity comparison with daunomycin, cancer cell lines; format: cell-based
Procedure: SULFORHODAMINE B CYTOTOXICITY ASSAY
as §6
All other cells or cell lines were obtained from the American Type Culture Collection (ATCC) (all except CHO cells are human or mouse cancer cell lines as described by the ATCC).

[15] = LD50 in mice; details: mouse, in vivo, ip, here found
Procedure: Daunomycin has a reported LD50 in mice of 20 mg/kg when administered intravenously (i.v.) and 5 mg/kg when administered intraperitoneally (i.p.) [Merck Index, 11th ed., Merck & Co., Inc., Rahway, N.J., page 445 (1989)].

[16] = tested on: EMT-6 mammary tumor cells; experiment: In vivo mouse study, EMT-6 mammary tumor
Procedure: FIG. 1 is a graph showing the average tumor size in 6-10 week old female Balb/c BYJ mice inoculated with EMT-6 mammary tumor cells. Control mice (open squares) were treated with normal saline on days 1, 5 and 9 after inoculation. Study mice (X's) were treated with an equal volume of normal saline containing 15 mg/kg of Compound I on those same days post inoculation with the tumor cells.
The data of FIG. 1 illustrate an in vivo study using Compound 1. Here, groups of 6-10 week old, female Balb/c BYJ mice (obtained from The Scripps Research Institute breeding colony, La Jolla, Calif.) (8 per group) were inoculated with 5×10^5 cells of the EMT6 tumor cell line, a mammary tumor. The mice were then treated with normal saline (control) or normal saline containing 15 mg/kg of Compound 1 (study) on days 1, 5 and 9 after the inoculation.
The average tumor volume was then calculated for each group of mice.

[17] = tested on: mice; details: i.v., Merck Index; cited from earlier work
[18] = first four cancer cell lines (two leukemias and two carcinomas)

| Compound | IC50 [1] [nM] | IC50 [2] [nM] | IC50 [3] [nM] | IC50 [4] [nM] | IC50 [5] [nM] | IC50 [6] [nM] | IC50 [7] [nM] | IC50 [8] [nM] | IC50 [9] [nM] | IC50 [10] [µM] | IC50 [11] [µM] | IC50 [12] [µM] | IC50 [13] [µM] | potency relative to daunomycin [14, 18] | LD50 [15] [mg/kg] | other results |
| --- | --- | --- | --- | --- | --- | --- | --- | --- | --- | --- | --- | --- | --- | --- | --- | --- |
| COc1cccc2c1C(=O)c1c(O)c3c(c(O)c1C2=O)C[C@@](O)(C(C)=O)C[C@@H]3O[C@H]1C[C@H](NC(=O)OCCS(=O)(=O)c2ccccc2)[C@H](O)[C@H](C)O1 [Compound 1, 8-Acetyl-10-[[3-[N-[2-(phenylsulfonyl)-ethoxycarbonyl]]amino-2,4,6-trideoxy-1-lyxo-hexapyranosyl]oxy]-7,8,9,10-tetrahydro-6,8,11-trihydroxy-1-methoxy-5,12-naphthacenedione] | 98 | 780 | 780 | 1 | 3100 | 780 | 780 | 1600 | 3100 | 13 | 13 | 6.3 | 25 | same potencies | ~35 | cancer cell cytotoxicity difference between Compound 1 and daunomycin ([14]; cancer cells): no difference to a four-fold difference; potency relative to daunomycin ([14]; final two carcinoma cell lines): about one-fourth the potency of daunomycin; potency relative to daunomycin ([14]; second three cancer cell lines (melanoma, pancreatic carcinoma and mouse leukemia)): about one-half the potency of daunomycin; tumor burden of treated mice vs control ([16]; 15 mg/kg on days 1, 5 and 9, between days 14 and 16): about one-third the tumor burden of the control group; average tumor volume vs control ([16]; 15 mg/kg on days 1, 5 and 9, by day 8 post inoculation): slight difference in the average volume of the tumors, with the study group having a lower tumor burden; control group's average tumor volume relative to study group ([16]; 15 mg/kg on days 1, 5 and 9, by day 20 post inoculation): about twice that of the study group; growth of mammary tumors ([16]; EMT-6 implanted in mice): retarded the growth of mammary tumors |
| COc1cccc2c1C(=O)c1c(O)c3c(c(O)c1C2=O)C[C@@](O)(C(C)=O)C[C@@H]3O[C@H]1C[C@H](N)[C@H](O)[C@H](C)O1 [Daunomycin] | < 98 | 780 | 780 | 1 | 1600 | 390 | 390 | 390 | 730 | 0.39 | 0.19 | 0.39 | 0.78 | same potencies | ~12 | LD50 [17]: 20 mg/kg |
